Assays:
Hepatotoxicity [1] = system: Hepatotoxicity;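 as to HepSE bilirubinemia: bilirubinemia hepatic side effect score drawn from the DILIps training data, a prediction system for drug-induced liver injury; call rule not given here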;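 as to HepSE cholecystitis: Cholecystitis-related hepatic side effect score drawn from the DILIps (drug-induced liver injury prediction) training data set; call rule not given here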;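 as to HepSE cholelithiasis: hepatic side effect score for cholelithiasis, drawn from the DILIps training data for predicting drug-induced liver injury; call rule not given here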;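 as to HepSE cirrhosis: cirrhosis hepatic side effect score taken from the DILIps (drug-induced liver injury prediction) training set; call rule not given here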;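 as to HepSE elevated liver function tests: hepatic side effect score for raised liver function tests, as recorded in the DILIps training set used for predicting drug-induced liver injury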; as to HepSE hepatic failure: call rule not given here;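 as to HepSE hepatomegaly: hepatic side effect score for hepatomegaly, taken from the training set of the DILIps drug-induced liver injury prediction system; call rule not given here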
Hepatotoxicity [2] = system: Hepatotoxicity; remark: listed apart in the source;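 as to HepSE bilirubinemia: bilirubinemia hepatic side effect score drawn from the DILIps training data, a prediction system for drug-induced liver injury; call rule not given here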;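 as to HepSE cholecystitis: Cholecystitis-related hepatic side effect score drawn from the DILIps (drug-induced liver injury prediction) training data set; call rule not given here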;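 as to HepSE cholelithiasis: hepatic side effect score for cholelithiasis, drawn from the DILIps training data for predicting drug-induced liver injury; call rule not given here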;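 as to HepSE cirrhosis: cirrhosis hepatic side effect score taken from the DILIps (drug-induced liver injury prediction) training set; call rule not given here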;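 as to HepSE elevated liver function tests: hepatic side effect score for raised liver function tests, as recorded in the DILIps training set used for predicting drug-induced liver injury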; as to HepSE hepatic failure: call rule not given here
Hepatotoxicity [3] = system: Hepatotoxicity; remark: listed apart in the source;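 as to HepSE bilirubinemia: bilirubinemia hepatic side effect score drawn from the DILIps training data, a prediction system for drug-induced liver injury; call rule not given here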;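 as to HepSE cholecystitis: Cholecystitis-related hepatic side effect score drawn from the DILIps (drug-induced liver injury prediction) training data set; call rule not given here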;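 as to HepSE cholelithiasis: hepatic side effect score for cholelithiasis, drawn from the DILIps training data for predicting drug-induced liver injury; call rule not given here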;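 as to HepSE cirrhosis: cirrhosis hepatic side effect score taken from the DILIps (drug-induced liver injury prediction) training set; call rule not given here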;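 as to HepSE elevated liver function tests: hepatic side effect score for raised liver function tests, as recorded in the DILIps training set used for predicting drug-induced liver injury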; as to HepSE hepatic failure: call rule not given here
Hepatotoxicity [4] = system: Hepatotoxicity; remark: listed apart in the source;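 as to HepSE bilirubinemia: bilirubinemia hepatic side effect score drawn from the DILIps training data, a prediction system for drug-induced liver injury; call rule not given here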;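 as to HepSE cholecystitis: Cholecystitis-related hepatic side effect score drawn from the DILIps (drug-induced liver injury prediction) training data set; call rule not given here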;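 as to HepSE cholelithiasis: hepatic side effect score for cholelithiasis, drawn from the DILIps training data for predicting drug-induced liver injury; call rule not given here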;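 as to HepSE cirrhosis: cirrhosis hepatic side effect score taken from the DILIps (drug-induced liver injury prediction) training set; call rule not given here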;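 as to HepSE elevated liver function tests: hepatic side effect score for raised liver function tests, as recorded in the DILIps training set used for predicting drug-induced liver injury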; as to HepSE hepatic failure: call rule not given here
Hepatotoxicity [5] = system: Hepatotoxicity; remark: listed apart in the source; as to HepSE hepatic failure: call rule not given here
Hepatotoxicity [6] = system: Hepatotoxicity; remark: listed apart in the source; as to HepSE hepatic failure: call rule not given here
Hepatotoxicity [7] = system: Hepatotoxicity; remark: listed apart in the source
Hepatotoxicity [8] = system: Hepatotoxicity; remark: listed apart in the source
Hepatotoxicity [9] = system: Hepatotoxicity; remark: listed apart in the source
Hepatotoxicity [10] = system: Hepatotoxicity; remark: listed apart in the source
Hepatotoxicity [11] = system: Hepatotoxicity; remark: listed apart in the source
Hepatotoxicity [12] = system: Hepatotoxicity; remark: listed apart in the source
Hepatotoxicity [13] = system: Hepatotoxicity; remark: listed apart in the source
Hepatotoxicity [14] = system: Hepatotoxicity; remark: listed apart in the source

Row | SMILES | HepSE_bilirubinemia (Hepatotoxicity [1]) | HepSE_cholecystitis (Hepatotoxicity [2]) | HepSE_cholelithiasis (Hepatotoxicity [3]) | HepSE_cirrhosis (Hepatotoxicity [4]) | HepSE_elevated liver function tests (Hepatotoxicity [5]) | HepSE_hepatic failure (Hepatotoxicity [6]) | HepSE_hepatic necrosis (Hepatotoxicity [7]) | HepSE_hepatitis (Hepatotoxicity [8]) | HepSE_hepatomegaly (Hepatotoxicity [9]) | HepSE_jaundice (Hepatotoxicity [10]) | HepSE_liver disease (Hepatotoxicity [11]) | HepSE_liver fatty (Hepatotoxicity [12]) | HepSE_liver function tests abnormal (Hepatotoxicity [13]) | HepSE_Combined Scores (Hepatotoxicity [14]) | other results
1 | NC[C@H]1O[C@H](O[C@H]2[C@H](O)[C@@H](O[C@H]3O[C@H](CO)[C@@H](O)[C@H](N)[C@H]3O)[C@H](N)C[C@@H]2N)[C@H](N)C[C@@H]1O [TOBRAMYCIN] | 0 | 0 | 0 | 0 | 0 | 0 | 0 | 0 | 0 | 0 | 0 | 0 | 0 | 0 | –
2 | Cc1ccc(S(=O)(=O)NC(=O)NN2CCCCCC2)cc1 [TOLAZAMIDE] | 0 | 0 | 0 | 0 | 0 | 0 | 0 | 0 | 0 | 1 | 0 | 0 | 0 | 1 | –
3 | c1ccc(CC2=NCCN2)cc1 [TOLAZOLINE] | 0 | 0 | 0 | 0 | 0 | 0 | 0 | 1 | 0 | 0 | 0 | 0 | 0 | 1 | –
4 | Cc1ccc(C(=O)c2cc(O)c(O)c([N+](=O)[O-])c2)cc1 [TOLCAPONE] | – | – | – | – | – | – | – | – | – | – | – | – | – | – | HepSE_bilirubinemia (Hepatotoxicity [1]; Liver): 0; HepSE_cholecystitis (Hepatotoxicity [2]; Liver): 1; HepSE_cholelithiasis (Hepatotoxicity [3]; Liver): 1; HepSE_cirrhosis (Hepatotoxicity [4]; Liver): 0; HepSE_elevated liver function tests (Hepatotoxicity [5]; Liver): 0; HepSE_hepatic failure (Hepatotoxicity [6]; Liver): 0; HepSE_hepatic necrosis (Hepatotoxicity [7]; Liver): 0; HepSE_hepatitis (Hepatotoxicity [8]; Liver): 0; HepSE_hepatomegaly (Hepatotoxicity [9]; Liver): 0; HepSE_jaundice (Hepatotoxicity [10]; Liver): 0; HepSE_liver disease (Hepatotoxicity [11]; Liver): 0; HepSE_liver fatty (Hepatotoxicity [12]; Liver): 0; HepSE_liver function tests abnormal (Hepatotoxicity [13]; Liver): 0; HepSE_Combined Scores (Hepatotoxicity [14]; Liver): 2
5 | Cc1ccc(C(=O)c2ccc(CC(=O)O)n2C)cc1 [TOLMETIN] | 0 | 0 | 0 | 0 | 0 | 0 | 0 | 1 | 0 | 0 | 0 | 0 | 0 | 1 | –
6 | Cc1ccc(O)c([C@H](CCN(C(C)C)C(C)C)c2ccccc2)c1 [TOLTERODINE] | 0 | 0 | 0 | 0 | 0 | 0 | 0 | 0 | 0 | 0 | 0 | 0 | 0 | 0 | –
7 | CC1(C)O[C@@H]2[C@@H](CO[C@@]3(COS(N)(=O)=O)OC(C)(C)O[C@@H]23)O1 [TOPIRAMATE] | 0 | 0 | 0 | 0 | 0 | 1 | 0 | 1 | 0 | 0 | 0 | 0 | 0 | 2 | –
8 | CC[C@@]1(O)C(=O)OCc2c1cc1n(c2=O)Cc2cc3c(CN(C)C)c(O)ccc3nc2-1 [TOPOTECAN] | 1 | 0 | 0 | 0 | 0 | 0 | 0 | 0 | 0 | 0 | 0 | 0 | 0 | 1 | –
9 | CN(C)CCOc1ccc(/C(=C(/CCCl)c2ccccc2)c2ccccc2)cc1 [TOREMIFENE] | 0 | 0 | 0 | 0 | 0 | 0 | 0 | 0 | 0 | 1 | 0 | 0 | 1 | 2 | –
10 | Cc1cccc(Nc2ccncc2S(=O)(=O)NC(=O)NC(C)C)c1 [TORSEMIDE] | 0 | 0 | 0 | 1 | 0 | 1 | 0 | 0 | 0 | 0 | 0 | 0 | 0 | 2 | –
11 | COc1cccc(C2(O)CCCCC2CN(C)C)c1 (configuration not stated) [TRAMADOL] | 0 | 1 | 1 | 0 | 0 | 1 | 0 | 1 | 0 | 0 | 0 | 0 | 1 | 5 | –
12 | CCOC(=O)[C@H](CCc1ccccc1)N[C@@H](C)C(=O)N1[C@H](C(=O)O)C[C@H]2CCCC[C@@H]21 [TRANDOLAPRIL] | 0 | 0 | 0 | 0 | 0 | 0 | 0 | 1 | 0 | 0 | 0 | 0 | 1 | 2 | –
13 | N[C@@H]1C[C@H]1c1ccccc1.N[C@H]1C[C@@H]1c1ccccc1 [TRANYLCYPROMINE] | – | – | – | – | – | – | – | – | – | – | – | – | – | – | HepSE_bilirubinemia (Hepatotoxicity [1]; Liver): 0; HepSE_cholecystitis (Hepatotoxicity [2]; Liver): 0; HepSE_cholelithiasis (Hepatotoxicity [3]; Liver): 0; HepSE_cirrhosis (Hepatotoxicity [4]; Liver): 0; HepSE_elevated liver function tests (Hepatotoxicity [5]; Liver): 0; HepSE_hepatic failure (Hepatotoxicity [6]; Liver): 0; HepSE_hepatic necrosis (Hepatotoxicity [7]; Liver): 0; HepSE_hepatitis (Hepatotoxicity [8]; Liver): 1; HepSE_hepatomegaly (Hepatotoxicity [9]; Liver): 0; HepSE_jaundice (Hepatotoxicity [10]; Liver): 0; HepSE_liver disease (Hepatotoxicity [11]; Liver): 0; HepSE_liver fatty (Hepatotoxicity [12]; Liver): 0; HepSE_liver function tests abnormal (Hepatotoxicity [13]; Liver): 0; HepSE_Combined Scores (Hepatotoxicity [14]; Liver): 1
